“Also recorded” adds a separate entry of the source. Values belong to the molecule of their own block, whether it stands above or below them.
What was measured:
TRPV6 [1] = details: at the tested doses; cited from earlier work
TRPV5 = tested on: TRPV5; design: method as in PMID 30170189; details: at the tested doses; cited from earlier work
[2] = target: C-terminally truncated human TRPV6 (hTRPV6-CtD, residues 1–666 of wild-type channel) (human); assay: cryo-EM structure; hTRPV6-CtD in cNW30 nanodiscs with soybean lipids, 114 µM THCV; 150 mM NaCl, 20 mM Tris-HCl pH 8.0, 1 mM βME; C4 symmetry, 2.79 Å
[3] = target: full-length wild-type human TRPV6 with C-terminal streptavidin affinity tag and eGFP (FSEC construct) (human); assay: SEC; fluorescence-detection SEC (FSEC) of eGFP-tagged channels; HEK cells solubilised in 1% DDM, 0.1% CHS, supernatant on Superose 6 10/300 GL in 1 mM DDM, 20 mM Tris-HCl pH 8.0, 150 mM NaCl, 1 mM βME
L490W mutant hTRPV6 = target: T1, L490W mutant hTRPV6 (Homo sapiens, UniProt Q9H1D0, L530W); assay: Fura-2 AM Ca2+ uptake, L490W mutant hTRPV6; format: cell-based; details: L490W
T1 construct: Full-length wild-type or mutant human TRPV6 was expressed in HEK 293S cells as described above; expressed in transfected cells; host or cells: HEK 293S GnTI- (baculovirus/BacMam transduction)
T1 sequence (Q9H1D0 41-765 L530W limits assumed): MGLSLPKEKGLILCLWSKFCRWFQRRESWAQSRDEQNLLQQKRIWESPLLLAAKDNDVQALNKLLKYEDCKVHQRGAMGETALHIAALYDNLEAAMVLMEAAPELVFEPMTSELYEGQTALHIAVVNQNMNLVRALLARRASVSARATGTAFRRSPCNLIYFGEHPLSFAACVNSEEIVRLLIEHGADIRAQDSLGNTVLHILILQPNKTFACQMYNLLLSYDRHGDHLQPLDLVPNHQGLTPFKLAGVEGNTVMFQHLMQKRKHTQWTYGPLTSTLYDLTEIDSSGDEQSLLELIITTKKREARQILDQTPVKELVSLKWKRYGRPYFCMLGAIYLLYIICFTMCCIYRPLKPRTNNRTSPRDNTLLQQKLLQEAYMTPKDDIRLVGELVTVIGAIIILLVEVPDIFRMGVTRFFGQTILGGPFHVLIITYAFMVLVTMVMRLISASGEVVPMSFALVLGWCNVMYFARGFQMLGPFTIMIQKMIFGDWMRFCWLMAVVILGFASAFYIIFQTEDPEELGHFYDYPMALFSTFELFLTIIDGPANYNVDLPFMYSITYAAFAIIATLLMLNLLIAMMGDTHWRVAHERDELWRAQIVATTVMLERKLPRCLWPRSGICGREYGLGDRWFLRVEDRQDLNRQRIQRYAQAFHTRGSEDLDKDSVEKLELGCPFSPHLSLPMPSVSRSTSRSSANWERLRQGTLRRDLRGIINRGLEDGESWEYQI

TRPV6 [4] = tested on: TRPV6; design: method as in doi:10.1038/nature17975; details: ref doi:10.1038/nature17975; cited from earlier work
[5] = target: full-length human TRPV6 L490W mutant with C-terminal streptavidin affinity tag and eGFP (FSEC construct) (human); assay: SEC; fluorescence-detection SEC (FSEC) of eGFP-tagged channels; HEK cells solubilised in 1% DDM, 0.1% CHS, supernatant on Superose 6 10/300 GL in 1 mM DDM, 20 mM Tris-HCl pH 8.0, 150 mM NaCl, 1 mM βME

Molecule: C=C(C)[C@@H]1CCC(C)=C[C@H]1c1c(O)cc(CCCCC)cc1O [CBD, cannabidiol]
- antagonist effect on TRPV6 (TRPV6 [1]): Lack of CBD effect; also recorded: do not modulate; also recorded: ineffective
- antagonist effect on TRPV5 (TRPV5): ineffective

Molecule: [Gd+3] [Gd3+]
- block of Ca2+ uptake (L490W mutant hTRPV6; 100 µM Gd3+): complete block
- inhibition of calcium uptake (L490W mutant hTRPV6; 100 mM Gd3+ as printed, n = 3): complete inhibition
- block of the calcium uptake signal (TRPV6 [4]): full block of the signal

The next lines start with the values.

- stoichiometry N [2]: 4
Molecule: C-terminally truncated human TRPV6 (hTRPV6-CtD, residues 1–666 of wild-type channel) (domain or fragment)

- stoichiometry N [3]: 4
Molecule: full-length wild-type human TRPV6 with C-terminal streptavidin affinity tag and eGFP (FSEC construct) (natural protein)

- stoichiometry N [5]: 4
Molecule: full-length human TRPV6 L490W mutant with C-terminal streptavidin affinity tag and eGFP (FSEC construct) (natural protein)

Source: PMC10397291, “Molecular pathway and structural mechanism of human oncochannel TRPV6 inhibition by the phytocannabinoid tetrahydrocannabivarin” (Nature Communications, 2023)
